Measurements published in patent publication US20250232831A1, “METHOD FOR PREDICTING CELL MEMBRANE PERMEABILITY OF CYCLIC PEPTIDE” (FUJIFILM Corporation, priority 2022, published 2025).
Like-named read-outs stand apart in the source and are kept apart here. Where a SMILES comes first, the peptide text is derived from it. Bridges are numbered along the chain shown (N, C = ends). [ ]: non-standard residue; d: D form. The star is where a group is joined. NMeL = CN[C@@H](CC(C)C)C(=O)O; hCys = N[C@@H](CCS)C(=O)O; NMeA = CN[C@@H](C)C(=O)O; Piperidide = C1CCN(*)CC1; dNMeA = CN[C@H](C)C(=O)O

Assay: Evaluation of cell membrane permeability (permeation test, permeability coefficient Papp)
Format: in vitro ADME
Conditions: dog
Protocol: 300 μL of MDCK II cells (ECACC standard cell line) at a density of 1.0×10^6 cells/mL were seeded in an insert (dedicated for a 24-well plate, pore diameter: 3.0 μm, manufactured by Corning Incorporated), and cultured at 37° C. in a 5% CO2 environment. After 3 days, the electric resistance value of the cell layer (measuring device: Millicell (registered trademark) ERS-2 (manufactured by Millipore Corporation), electrode: ENDOHM-6 (manufactured by WPI, Inc.)) was measured, and it was confirmed that the cell layer had high barrier properties (>100 (2 Ω·cm^2).
The insert was washed by being immersed in a Hank's Balanced Salt Solution (HBSS) (phenol red-free), 200 μL of a sample prepared at 10 μmol/L/HBSS was added thereto, and the insert was allowed to stand in a low-adsorption 24-well plate containing 900 μL of HBSS (37° C., 5% CO2). After 2 hours, each liquid of the upper layer (apical) and the lower layer (basal) of the insert (10 μL for apical and 500 μL for basal) was recovered. After testing, no leakage was confirmed with Lucifer Yellow, which is a non-permeable fluorescent dye.
The device used was LC/MS/MS (triple quadrupole type). […]
Based on the calculation expression shown in the following expression, a permeability coefficient Papp, which represents the membrane permeability, was calculated from each quantitative value. […]

| SMILES | Papp A→B at 2 h, 10 μmol/L (MDCK) [×10⁻⁶ cm/s] | Papp A→B at 2 h, 10 μmol/L (MDCK II cells, 10 μmol/L sample in HBSS, 2 hours, 37° C., apical to basal, read-out: Cell membrane permeability Papp) [×10⁻⁶ cm/s] |
| --- | --- | --- |
| CC(C)C[C@@H]1NC(=O)[C@H](C)N(C)C(=O)[C@@H](C)N(C)C(=O)[C@H](CC(C)C)N(C)C(=O)[C@H](CC(C)C)N(C)C(=O)[C@H](CC(C)C)NC(=O)[C@H](CC(C)C)N(C)C(=O)CSCC[C@@H](C(=O)N2CCCCC2)NC(=O)[C@H](C)N(C)C(=O)[C@H](C)N(C)C1=O [Compound 1] ({CH2CO}-[NMeL]L[NMeL][NMeL][dNMeA][NMeA]L[NMeA][NMeA][hCys]-Piperidide; thioether N-10) | 1.1 | – |
| CC(C)C[C@@H]1NC(=O)[C@H](CC(C)C)N(C)C(=O)CSCC[C@@H](C(=O)N2CCCCC2)NC(=O)[C@H](C)N(C)C(=O)[C@@H]2CCCN2C(=O)[C@H](CC(C)C)N(C)C(=O)[C@H](C)NC(=O)[C@H](C)N(C)C(=O)[C@H](CC(C)C)N(C)C(=O)[C@H](CC(C)C)N(C)C1=O [Compound 2] ({CH2CO}-[NMeL]L[NMeL][NMeL][NMeA]A[NMeL]P[NMeA][hCys]-Piperidide; thioether N-10) | – | 0.04 |
